Assay results taken from paper PMC11651181, “Discovery of 6α-Thiazolylcarboxamidonaltrexamine Derivative (NTZ) as a Potent and Central Nervous System Penetrant Opioid Receptor Modulator with Drug-like Properties for Potential Treatment of Opioid Use Disorder” (ACS Pharmacology & Translational Science, 2024).
Structures can show the parent of a compound that is named as a salt.

Key:
MOR = biological target: T1, MOR (Mus musculus, UniProt P42866); assay: MOR [35S]GTPγS functional assay; assay type: biochemical
T1 construct: expressed in transfected cells; host or cells: CHO (MOR-CHO), membrane preparation
Method: The [^35S]GTPγS functional assay was used to assess the efficacy of compounds at the MOR, KOR, and DOR. In this assay, 10 μg of MOR-CHO/KOR-CHO/DOR-CHO membrane protein was incubated in 500 μL of TME with 100 mM NaCl, 20 μM GDP, 0.1 nM [^35S]GTPγS, and varying concentrations of the compound for 1.5 h in a 30 °C water bath. Protein concentration was adjusted using the Bradford protein assay. […] After incubation, bound radioactivity was separated by filtration through GF/B glass fiber filters and measured by liquid scintillation counting. All assays were performed in duplicate and repeated at least three times. Net stimulated [35S]GTPγS binding was calculated as agonist-stimulated minus basal binding.

CYP1A2 = biological target: T2, CYP1A2 (Homo sapiens, UniProt P05177); assay: Cytochrome P450 inhibition assay, CYP1A2; assay type: in vitro ADME
T2 construct: Eurofins Panlabs, Inc. (contract laboratory)
T2 sequence (P05177 1-516): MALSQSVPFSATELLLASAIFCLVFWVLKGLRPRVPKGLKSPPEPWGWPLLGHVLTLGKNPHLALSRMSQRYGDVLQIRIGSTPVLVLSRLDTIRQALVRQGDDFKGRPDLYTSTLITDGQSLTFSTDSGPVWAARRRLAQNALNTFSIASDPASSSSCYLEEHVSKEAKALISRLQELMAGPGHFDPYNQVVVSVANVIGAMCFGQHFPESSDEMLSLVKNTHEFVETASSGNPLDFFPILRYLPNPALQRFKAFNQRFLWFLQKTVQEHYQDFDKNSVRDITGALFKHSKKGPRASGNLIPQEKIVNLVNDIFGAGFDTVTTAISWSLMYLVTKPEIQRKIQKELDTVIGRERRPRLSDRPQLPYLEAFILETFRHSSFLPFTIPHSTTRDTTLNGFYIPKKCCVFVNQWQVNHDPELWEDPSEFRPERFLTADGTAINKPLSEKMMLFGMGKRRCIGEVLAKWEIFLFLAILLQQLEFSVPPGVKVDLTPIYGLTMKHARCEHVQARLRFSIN
Method: (§1) The ADMET assessment including the hERG inhibitory activity, plasma protein binding, in vitro metabolic stability profile, CYP inhibitory effect and mutagenic evaluation were conducted by Eurofins Panlabs, Inc.[21],[61],[69]−[71]

[1] = Plasma protein binding, human; assay type: in vitro ADME
Method: as §1

CYP2A6 = biological target: T3, CYP2A6 (Homo sapiens, UniProt P11509); assay: Cytochrome P450 inhibition assay, CYP2A6; assay type: in vitro ADME
T3 construct: Eurofins Panlabs, Inc. (contract laboratory)
T3 sequence (P11509 1-494): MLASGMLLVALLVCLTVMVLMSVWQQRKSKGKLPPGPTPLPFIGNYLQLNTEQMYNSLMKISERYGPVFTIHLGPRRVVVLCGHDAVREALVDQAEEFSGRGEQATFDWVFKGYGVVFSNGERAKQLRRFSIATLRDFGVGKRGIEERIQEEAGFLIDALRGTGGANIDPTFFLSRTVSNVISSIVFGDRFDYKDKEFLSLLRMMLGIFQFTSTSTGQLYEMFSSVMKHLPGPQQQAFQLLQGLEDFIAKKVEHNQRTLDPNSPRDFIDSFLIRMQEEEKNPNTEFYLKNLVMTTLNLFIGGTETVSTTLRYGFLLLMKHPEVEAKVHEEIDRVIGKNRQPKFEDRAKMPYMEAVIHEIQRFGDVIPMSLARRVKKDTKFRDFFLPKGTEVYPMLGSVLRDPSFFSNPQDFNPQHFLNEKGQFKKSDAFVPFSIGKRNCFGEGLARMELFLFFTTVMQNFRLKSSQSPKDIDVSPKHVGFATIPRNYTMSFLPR
Method: as §1

CYP2C9 = biological target: T4, CYP2C9 (Homo sapiens, UniProt P11712); assay: Cytochrome P450 inhibition assay, CYP2C9; assay type: in vitro ADME
T4 construct: Eurofins Panlabs, Inc. (contract laboratory)
Method: as §1

μ opioid receptor (MOR) = biological target: T5, μ opioid receptor (MOR) (Mus musculus, UniProt P42866); assay: Competitive radioligand binding assay, MOR
T5 construct: expressed in transfected cells; host or cells: CHO (mMOR-CHO), membrane preparation
Method: The competition binding assay was performed using monoclonal mouse opioid receptors expressed in CHO cell lines (monoclonal human δ opioid receptor was used for the DOR assay).
The bound radioligand was separated using a Brandel harvester. Specific binding to the MOR, KOR, and DOR was calculated by subtracting the binding observed in the presence of 5 μM naltrexone, U50488, and SNC80, respectively, from the binding in their absence. Relative affinity values (IC50) were determined by fitting displacement binding inhibition data to a nonlinear regression model using GraphPad Prism 8.0 (GraphPad Software, San Diego, CA). The % inhibition was calculated using the formula: % inhibition = 100% - [(binding with the tested compound - nonspecific binding)/specific binding] × 100%. The IC50 values were converted to Ki values using the Cheng-Prusoff equation: Ki = IC50/ [1 + ([L*]/KD)], where [L*] is the concentration of the radioligand and KD is the KD of the radioligand.[68]

hERG potassium channel = hERG potassium channel (Homo sapiens, UniProt Q12809); assay: hERG inhibitory activity assay (automated patch-clamp, CHO-K1 cells)
Method: On the day of the assay, a dish of cells was removed from the incubator, washed twice with extracellular solution at room temperature, and applied to automated patch-clamp sites. After achieving a whole-cell configuration, the membrane potential was held at −80 mV. A 50 ms pulse to −40 mV was applied to measure leak current, which was subtracted from the tail current in real time. […] This sequence was repeated every 5 s to track the current amplitude. The assay was performed at room temperature, with extracellular solution applied first to stabilize the cell for 5 min. […] Peak tail currents were recorded and plotted against sweep number. The control current amplitude was calculated by averaging five peak tail current measurements at steady state before compound application. The remaining current amplitude after compound inhibition was determined by averaging four to five peak tail current measurements at steady state after compound application.
Percent inhibition was calculated according to the following equation:

[2] = In vitro metabolic stability in human liver microsomes; assay type: in vitro ADME; settings: 1.0E-07 M
Method: as §1

morphine-pelleted mice = assay: In vivo opioid withdrawal studies in morphine-pelleted mice; set-up: species or system mouse
Method: Swiss Webster mice (six males per group, weighing 25–35 g and aged 6–8 weeks) were used. Following a previously established protocol,[20] a 75 mg morphine pellet was implanted subcutaneously into the back of each mouse, and they were allowed to recover in their home cages. Prior to testing, the mice were habituated for 30 min in an open-topped, clear Plexiglas observation chamber (26 × 26 × 26 cm^3) with lines marking the floor into quadrants. […]. Withdrawal symptoms began within 3 min of antagonist administration. Escape jumps, paw tremors, and wet dog shakes were recorded by counting their occurrences over a 20 min period for each mouse. Results are expressed as the mean ± SEM.

[3] = human, CHO-K1 cells stably expressing hERG
[4] = 5 mg/kg s.c., counted over 20 min

T1 sequence (P42866 whole entry): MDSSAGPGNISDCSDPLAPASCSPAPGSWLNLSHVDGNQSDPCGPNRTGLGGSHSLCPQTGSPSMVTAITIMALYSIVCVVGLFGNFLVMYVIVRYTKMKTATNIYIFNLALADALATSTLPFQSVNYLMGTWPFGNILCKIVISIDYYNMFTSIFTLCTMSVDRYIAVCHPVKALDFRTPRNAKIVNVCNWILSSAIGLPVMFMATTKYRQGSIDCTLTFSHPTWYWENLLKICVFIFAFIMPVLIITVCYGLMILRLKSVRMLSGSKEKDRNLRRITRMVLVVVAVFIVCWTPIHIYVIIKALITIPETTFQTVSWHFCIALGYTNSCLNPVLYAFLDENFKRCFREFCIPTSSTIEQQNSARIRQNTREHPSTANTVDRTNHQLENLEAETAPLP
Sequence of hERG potassium channel (Q12809 whole entry): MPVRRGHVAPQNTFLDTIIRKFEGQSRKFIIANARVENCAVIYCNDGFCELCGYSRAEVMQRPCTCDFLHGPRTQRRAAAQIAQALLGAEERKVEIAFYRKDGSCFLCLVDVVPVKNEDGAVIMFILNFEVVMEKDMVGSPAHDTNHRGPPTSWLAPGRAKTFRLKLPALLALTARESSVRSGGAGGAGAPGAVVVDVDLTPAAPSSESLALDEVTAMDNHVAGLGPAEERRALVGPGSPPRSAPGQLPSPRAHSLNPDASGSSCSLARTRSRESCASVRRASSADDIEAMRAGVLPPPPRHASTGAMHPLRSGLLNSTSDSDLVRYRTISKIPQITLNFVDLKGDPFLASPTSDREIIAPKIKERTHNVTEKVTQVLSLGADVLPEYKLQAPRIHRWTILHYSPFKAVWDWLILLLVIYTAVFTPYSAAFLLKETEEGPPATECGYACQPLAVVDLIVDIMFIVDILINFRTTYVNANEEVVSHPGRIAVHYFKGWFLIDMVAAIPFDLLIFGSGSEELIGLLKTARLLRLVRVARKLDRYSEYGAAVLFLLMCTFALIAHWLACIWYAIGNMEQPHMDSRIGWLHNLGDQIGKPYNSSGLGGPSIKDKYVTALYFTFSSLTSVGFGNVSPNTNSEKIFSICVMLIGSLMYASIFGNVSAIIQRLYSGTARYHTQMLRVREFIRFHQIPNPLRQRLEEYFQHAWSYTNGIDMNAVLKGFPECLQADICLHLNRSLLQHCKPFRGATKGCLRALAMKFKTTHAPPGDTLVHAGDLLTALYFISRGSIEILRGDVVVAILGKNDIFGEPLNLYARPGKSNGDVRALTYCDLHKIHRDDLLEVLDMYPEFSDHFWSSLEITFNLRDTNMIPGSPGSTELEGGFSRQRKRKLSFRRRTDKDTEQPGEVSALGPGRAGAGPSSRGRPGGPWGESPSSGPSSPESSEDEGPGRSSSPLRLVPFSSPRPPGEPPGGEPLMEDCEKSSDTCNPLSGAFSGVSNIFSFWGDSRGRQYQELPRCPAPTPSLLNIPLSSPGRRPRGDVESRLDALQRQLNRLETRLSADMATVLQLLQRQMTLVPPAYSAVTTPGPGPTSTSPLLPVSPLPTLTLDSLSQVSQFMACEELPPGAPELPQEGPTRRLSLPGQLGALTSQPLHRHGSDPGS
T4 sequence (P11712 whole entry): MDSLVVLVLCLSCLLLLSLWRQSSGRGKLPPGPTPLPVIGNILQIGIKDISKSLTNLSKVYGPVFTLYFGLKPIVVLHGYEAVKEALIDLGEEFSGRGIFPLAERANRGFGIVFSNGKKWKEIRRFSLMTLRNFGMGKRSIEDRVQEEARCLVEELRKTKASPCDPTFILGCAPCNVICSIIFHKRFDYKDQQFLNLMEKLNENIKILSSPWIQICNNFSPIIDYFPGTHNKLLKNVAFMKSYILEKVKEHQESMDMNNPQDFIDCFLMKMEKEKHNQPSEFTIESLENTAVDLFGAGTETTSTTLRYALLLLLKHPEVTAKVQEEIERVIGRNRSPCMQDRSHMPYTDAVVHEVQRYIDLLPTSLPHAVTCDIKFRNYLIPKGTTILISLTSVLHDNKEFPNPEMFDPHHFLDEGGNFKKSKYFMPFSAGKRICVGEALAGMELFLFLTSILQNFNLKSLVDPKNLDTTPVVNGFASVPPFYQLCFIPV
T5 sequence (P42866 whole entry): as the sequence (P42866 whole entry) above

With `O=C(N[C@H]1CC[C@@]2(O)[C@H]3Cc4ccc(O)c5c4[C@@]2(CCN3CC2CC2)[C@H]1O5)c1nccs1` [Compound 6, 17-Cyclopropylmethyl-3,14β-dihydroxy-4,5α-epoxy-6α-(2′-thiazolylcarboxamido)-morphinan hydrochloride] the EC50 (MOR) was 2.16 ± 0.38 nM, the Emax (MOR; read-out: MOR [35S]GTPγS Binding %Emax of DAMGO, relative to 3 μM DAMGO, mean ± SEM) was 6 to 11% and the “MOR [35S]GTPγS Binding %Emax of DAMGO” value (MOR; relative to 3 μM DAMGO, mean ± SEM) was 11.3 ± 1.30%. It also gave an inhibition at 10 µM (CYP1A2; 1.0E-05 M) of 7.4%, an inhibition at 100 nM (CYP1A2; 1.0E-07 M) of 11.4% and a fraction unbound [1] of 0.56. The inhibition at 10 µM (CYP2A6; 1.0E-05 M) was 7.8%, the inhibition at 100 nM (CYP2A6; 1.0E-07 M) was 6.3% and the inhibition at 10 µM (CYP2C9; 1.0E-05 M) was 16.3%. The inhibition at 100 nM (CYP2C9; 1.0E-07 M) was 0.6%, the Ki (μ opioid receptor (MOR)) was 0.25 ± 0.03 nM and the IC50 (hERG potassium channel) was 7400 nM. It also gave an inhibition at 10 nM (hERG potassium channel; [3]) of 2.6%, an inhibition at 100 nM (hERG potassium channel; [3]) of 6% and an inhibition at 1 µM (hERG potassium channel; [3]) of 18.5%. For the same molecule, the inhibition at 10 µM (hERG potassium channel; [3]) was 55.5%, the inhibition at 0.0001 M (hERG potassium channel; [3]) was 86.8% and the half-life at 100 nM [2] was greater than 1 h. The microsomal CLint at 100 nM [2] was less than 38.5 µL/min/mg, the “% Compound Remaining, mean” value ([2]; 15 min) was 101% and the “% Compound Remaining, mean” value ([2]; 30 min) was 101%. For the same molecule, the “% Compound Remaining, mean” value ([2]; 45 min) was 103%, the “% Compound Remaining, mean” value ([2]; 60 min) was 97% and the “Jumps, mean count” value (morphine-pelleted mice; [4]) was 36.8. The “Paw tremors, mean count” value (morphine-pelleted mice; [4]) was 30.2, the “Wet dog shake, mean count” value (morphine-pelleted mice; [4]) was 9.8 and the “Precipitated withdrawal symptoms, in words” value (morphine-pelleted mice; s.c.) was “fewer wet dog shakes and paw tremors at all testing doses than 1 mg/kg NLX”.
